Reference: patent publication US8158376B2, “Bisubstrate fluorescent probe binding to protein kinases” (University of Tartu, priority 2006, dated 2012)

What was measured:
cAPK Cα [1] = biological target: T1, cAPK Cα (Homo sapiens, UniProt P17612); assay: Competition: displacement of ARC-TAMRA from complex with cAPK Cα, fluorescence anisotropy, LS 55; assay type: binding; parameters: purchased Biaffin AG
Procedure: A complex was created between 10 nM of ARC-TAMRA and 10 nM of cAPK Cα in 0.500 ml of buffer (50 mM HEPES, 200 mM NaCl, 0.5 g/l BSA, 5 mM DTT, 0.05% TWEEN 20, MilliQ water; pH 7.4). Different compounds were screened for binding to cAPK Cα against fixed concentrations of ARC-TAMRA and cAPK Cα (FIG. 4). 1-3 μl quantities of various dilutions of the solution of the inhibitor were added to 500 μl solution of ARC-TAMRA complex with the kinase and fluorescence anisotropy was measured after each addition of the […] after 10 min delay time.

cAPK Cα [2] = biological target: T1, cAPK Cα; assay: High-throughput displacement of ARC-TAMRA from cAPK Cα, PHERAstar
Procedure: To determine the inhibition constant (Ki), 3-fold serial dilutions of a given inhibitor are performed analogously as for titration experiments. Before the measurement of fluorescence anisotropies the plate is rotated (400 rpm) for 10 minutes at 30° C.

PKA = PKA (Homo sapiens, UniProt P17612); assay: Kinase selectivity panel; assay type: biochemical; conditions: inhibitor 1 μM; ATP 20 μM; read-out: residual activity (%) PKA
In short: (§1)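 52-kinase panel; assays run at 30° C.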

MSK1 = MSK1 (Homo sapiens, UniProt O75582); assay: Kinase selectivity panel; assay type: biochemical; conditions: inhibitor 1 μM; ATP 20 μM; read-out: residual activity (%) MSK1
Chain of MSK1 (O75582 whole entry, species assumed): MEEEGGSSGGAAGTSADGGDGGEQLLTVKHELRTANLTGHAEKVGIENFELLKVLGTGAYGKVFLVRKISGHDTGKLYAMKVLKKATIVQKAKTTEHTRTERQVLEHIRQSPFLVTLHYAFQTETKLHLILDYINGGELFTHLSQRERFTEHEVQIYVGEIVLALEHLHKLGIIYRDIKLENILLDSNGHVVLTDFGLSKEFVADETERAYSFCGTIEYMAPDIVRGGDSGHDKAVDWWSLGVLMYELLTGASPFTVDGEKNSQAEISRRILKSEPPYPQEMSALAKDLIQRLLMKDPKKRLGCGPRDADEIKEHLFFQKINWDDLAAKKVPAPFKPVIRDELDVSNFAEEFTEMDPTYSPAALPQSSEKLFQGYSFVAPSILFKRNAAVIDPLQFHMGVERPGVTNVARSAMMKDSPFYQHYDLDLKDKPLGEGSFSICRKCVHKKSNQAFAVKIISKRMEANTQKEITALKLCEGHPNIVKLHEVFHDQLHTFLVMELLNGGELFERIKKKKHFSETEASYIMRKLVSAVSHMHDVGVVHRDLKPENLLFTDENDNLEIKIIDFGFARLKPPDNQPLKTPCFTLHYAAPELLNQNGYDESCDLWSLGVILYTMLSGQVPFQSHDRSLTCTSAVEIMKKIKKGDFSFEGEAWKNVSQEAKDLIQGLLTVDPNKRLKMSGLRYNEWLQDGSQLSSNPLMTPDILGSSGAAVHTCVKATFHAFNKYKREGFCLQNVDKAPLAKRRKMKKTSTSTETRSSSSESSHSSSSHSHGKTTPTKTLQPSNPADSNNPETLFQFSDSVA
In short: as §1

ROCK-II = ROCK-II (Homo sapiens, UniProt O75116); assay: Kinase selectivity panel; assay type: biochemical; conditions: inhibitor 1 μM; ATP 20 μM; read-out: residual activity (%) ROCK-II
Chain of ROCK-II (O75116 whole entry, species assumed): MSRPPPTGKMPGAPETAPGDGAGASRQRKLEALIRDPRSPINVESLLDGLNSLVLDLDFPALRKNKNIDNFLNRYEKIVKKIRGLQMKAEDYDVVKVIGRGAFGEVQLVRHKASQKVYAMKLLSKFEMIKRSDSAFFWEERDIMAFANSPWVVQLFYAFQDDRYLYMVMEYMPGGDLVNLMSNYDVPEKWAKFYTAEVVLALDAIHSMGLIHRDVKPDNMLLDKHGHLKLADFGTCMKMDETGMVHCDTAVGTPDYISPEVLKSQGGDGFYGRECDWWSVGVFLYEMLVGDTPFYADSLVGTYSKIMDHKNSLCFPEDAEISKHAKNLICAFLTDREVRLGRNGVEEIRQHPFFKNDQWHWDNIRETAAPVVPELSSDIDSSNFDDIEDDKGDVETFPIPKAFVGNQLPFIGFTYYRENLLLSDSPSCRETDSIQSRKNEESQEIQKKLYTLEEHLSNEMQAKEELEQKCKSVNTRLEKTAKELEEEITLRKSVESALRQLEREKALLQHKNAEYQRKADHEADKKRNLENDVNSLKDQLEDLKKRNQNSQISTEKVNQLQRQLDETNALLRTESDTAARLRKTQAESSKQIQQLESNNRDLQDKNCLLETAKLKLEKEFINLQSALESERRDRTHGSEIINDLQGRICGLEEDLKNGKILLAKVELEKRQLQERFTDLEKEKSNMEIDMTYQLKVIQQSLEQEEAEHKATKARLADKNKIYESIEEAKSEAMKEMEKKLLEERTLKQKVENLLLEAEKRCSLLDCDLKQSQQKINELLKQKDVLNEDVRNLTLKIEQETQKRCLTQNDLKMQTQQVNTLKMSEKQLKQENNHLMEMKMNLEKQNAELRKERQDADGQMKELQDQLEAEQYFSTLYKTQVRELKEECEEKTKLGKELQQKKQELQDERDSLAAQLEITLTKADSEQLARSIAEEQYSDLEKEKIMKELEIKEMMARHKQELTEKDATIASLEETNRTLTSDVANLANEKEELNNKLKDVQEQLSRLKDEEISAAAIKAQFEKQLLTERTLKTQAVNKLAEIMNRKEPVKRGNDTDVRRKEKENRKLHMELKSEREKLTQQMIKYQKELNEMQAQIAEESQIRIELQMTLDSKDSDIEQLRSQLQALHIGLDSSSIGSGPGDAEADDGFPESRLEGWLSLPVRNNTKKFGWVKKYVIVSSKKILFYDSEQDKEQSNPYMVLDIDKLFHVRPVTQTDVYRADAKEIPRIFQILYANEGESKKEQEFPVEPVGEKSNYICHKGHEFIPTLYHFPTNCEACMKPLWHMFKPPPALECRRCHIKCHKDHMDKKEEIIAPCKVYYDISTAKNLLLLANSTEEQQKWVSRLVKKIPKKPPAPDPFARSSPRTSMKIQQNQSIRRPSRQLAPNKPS
In short: as §1

| SMILES | IC50 (cAPK Cα [1]; 10 nM ARC-TAMRA, 10 nM cAPK Cα) | Kd (cAPK Cα [1]; cAPK Cα displacement, read-out: Kd of inhibitor (characterized with the probe)) | Ki (cAPK Cα [1]; read-out: Ki (competitive binding)) | Ki (cAPK Cα [2]) | remaining activity at 1 µM (PKA) | remaining activity at 1 µM (MSK1) | remaining activity at 1 µM (ROCK-II) |
| --- | --- | --- | --- | --- | --- | --- | --- |
| N=C(N)NCCC[C@@H](NC(=O)[C@@H](CCCNC(=N)N)NC(=O)[C@@H](CCCNC(=N)N)NC(=O)[C@@H](CCCNC(=N)N)NC(=O)[C@@H](CCCNC(=N)N)NC(=O)[C@@H](CCCNC(=N)N)NC(=O)CCCCCNC(=O)[C@H]1O[C@@H](n2cnc3c(N)ncnc32)[C@H](O)[C@@H]1O)C(N)=O [Compound 5, AdcAhx(D-Arg)6-NH2] | 35 nM | 2.5 nM | 2.5 nM | 1.1 nM | – | – | – |
| N=C(N)NCCC[C@@H](NC(=O)[C@@H](CCCNC(=N)N)NC(=O)[C@@H](CCCNC(=N)N)NC(=O)[C@@H](CCCNC(=N)N)NC(=O)[C@@H](CCCNC(=N)N)NC(=O)[C@@H](CCCNC(=N)N)NC(=O)CCCCCNCCNS(=O)(=O)c1cccc2cnccc12)C(N)=O [Compound 26, H9-Hex(D-Arg)6-NH2] | – | – | – | – | < 10% | 1% | 0% |
